For one series, the system named is Quiescent H358 cells. Put plainly: Viability of quiescent (serum-deprived) cells. The series is classed as cell-based. The following applies: 0.5 μM, 96 hours post-treatment, absence of serum. As for the experimental part: FIG. 5: Quiescent H358 cells were incubated with the compound, for 96 h, in the absence of serum. Three different concentrations of C14 were used and live cells were estimated with MTT (Promega). In the control only DMSO was added.
H358 cells were deprived in serum for 2 days and then incubated with the compound, for 96 h, still in the absence of serum. At the concentration (0.5 μM) that induced death of more than 50% of cycling cells, 90% of the cells are still alive 96 hours post-treatment (FIG. 5). C14 is thus not deleterious for quiescent cells.
Cells were drawn to quiescence by serum withdrawn. After two days of serum deprivations cells were incubated with different concentrations of compounds for 96 hours, serum being still omitted. The viability is determined as described above.

A short description of the next series: Water solubility. The series is classed as physicochemical.

In turn, `Cc1c[nH]c(=O)c2c1[nH]c1ccc3cc(OCCN(C)C)ccc3c12` [Compound C14, 3-(2-N,N-Dimethylaminoethoxy)-8-methyl-7H,10H-benzo[e]pyrido(4,3-b)indol-11-one] came in with a cells still alive with Quiescent H358 cells of 90%. For the same compound, the “solubility in water (in words)” value in “Water solubility” is reported as “water soluble”.

(Values after US20140073637A1, “AMINO-SUBSTITUTED-ALKYLOXY-BENZO[E]PYRIDO[4,3-B]INDOLE DERIVATIVES AS NEW POTENT KINASE INHIBITORS” (INSTITUT CURIE, priority 2011, published 2014).)
